In patent US20230220035A1 (DONG-A ST CO., LTD., published 2023) one finds half-life, Emax and EC50 data, which are given here for two compounds.

Data set [1] is described as follows: in vivo. To be noted: ICR, mouse, sc.
Source text: ICR mice were used to evaluate the pharmacokinetics in mice of the acylated oxyntomodulin peptide analogs according to the present invention.
Data set [2] can be described thus: in vivo. To be noted: cynomolgus monkey, sc.
Source text: Cynomolgus monkeys were used to evaluate the pharmacokinetics in monkeys of the acylated oxyntomodulin peptide analogs according to the present invention.
Another data set has as its target glucagon receptor (Homo sapiens, UniProt P47871). The experiment in a line: Human glucagon receptor activation assay (CRE-luciferase). It is filed as cell-based. Further details: host or cells: CHO-K1. Conditions: CHO-K1 cells transiently transfected; for Emax: 6 h, relative to glucagon, read-out: GCG receptor Maximum activation (% vs GCG); for pEC50: 6 hours, 0.1% BSA, read-out: GCG receptor EC50.

The next data set concerns the target GLP-1 receptor (Homo sapiens, UniProt P43220). The experiment in a line: Human GLP-1 receptor activation assay (CRE-luciferase). The format is cell-based. Further details: host or cells: CHO-K1. To be noted: for Emax: CHO-K1, 6 h, read-out: GLP-1 receptor Maximum activation (% vs GLP-1); for pEC50: CHO-K1 cells transiently transfected, luciferase, 6 hours, 0.1% BSA.

Broadly, the half-life is the time needed for the level to fall by half in the phase considered. A word on the pEC50: it is the EC50 on a negative log10 scale, so that one unit is a factor of ten.

pEC50: −log10 of the molar value.

glucagon receptor, sequence (P47871 26-477): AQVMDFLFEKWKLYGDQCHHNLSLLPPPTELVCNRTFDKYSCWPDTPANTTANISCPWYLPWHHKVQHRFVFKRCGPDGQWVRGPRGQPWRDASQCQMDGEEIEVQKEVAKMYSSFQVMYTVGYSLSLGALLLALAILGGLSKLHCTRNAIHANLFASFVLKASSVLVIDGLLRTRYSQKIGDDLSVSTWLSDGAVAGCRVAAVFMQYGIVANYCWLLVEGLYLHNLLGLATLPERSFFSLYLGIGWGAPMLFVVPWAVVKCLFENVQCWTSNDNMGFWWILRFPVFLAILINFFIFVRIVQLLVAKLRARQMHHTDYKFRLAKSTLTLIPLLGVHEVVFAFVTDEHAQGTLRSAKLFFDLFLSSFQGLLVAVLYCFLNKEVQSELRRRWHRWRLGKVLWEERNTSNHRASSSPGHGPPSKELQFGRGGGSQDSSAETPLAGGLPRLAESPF
GLP-1 receptor, sequence (P43220 24-463): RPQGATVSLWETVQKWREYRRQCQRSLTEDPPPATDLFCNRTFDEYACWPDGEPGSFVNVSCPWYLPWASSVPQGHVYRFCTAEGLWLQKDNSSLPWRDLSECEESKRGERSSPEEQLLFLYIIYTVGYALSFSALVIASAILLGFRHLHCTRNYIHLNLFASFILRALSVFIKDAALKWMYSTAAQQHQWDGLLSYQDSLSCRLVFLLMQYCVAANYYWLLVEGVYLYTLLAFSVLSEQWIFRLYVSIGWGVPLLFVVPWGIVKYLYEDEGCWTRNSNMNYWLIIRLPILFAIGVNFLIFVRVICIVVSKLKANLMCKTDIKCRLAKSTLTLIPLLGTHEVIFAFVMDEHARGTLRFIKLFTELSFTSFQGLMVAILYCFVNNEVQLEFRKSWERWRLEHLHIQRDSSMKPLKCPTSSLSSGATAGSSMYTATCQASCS

With `CCCCCCCCCCCCCCCCCC(=O)N[C@@H](CCC(=O)NCCOCCOCC(=O)NCCOCCOCC(=O)NCCCC[C@H](NC(=O)[C@H](CC(=O)O)NC(=O)[C@H](CO)NC(=O)[C@@H](NC(=O)[C@H](Cc1ccccc1)NC(=O)[C@@H](NC(=O)CNC(=O)[C@H](CCC(N)=O)NC(=O)C(C)(C)NC(=O)[C@@H](N)Cc1c[nH]cn1)[C@@H](C)O)[C@@H](C)O)C(=O)N[C@@H](CO)C(=O)N[C@@H](CCCCN)C(=O)N[C@@H](Cc1ccc(O)cc1)C(=O)N[C@@H](CC(C)C)C(=O)N[C@@H](CC(=O)O)C(=O)NC(C)(C)C(=O)N[C@@H](CCCNC(=N)N)C(=O)N[C@@H](CCCNC(=N)N)C(=O)N[C@@H](C)C(=O)N[C@@H](CCC(N)=O)C(=O)N[C@@H](CC(=O)O)C(=O)N[C@@H](Cc1ccccc1)C(=O)N[C@H](C(=O)N[C@@H](CCC(N)=O)C(=O)N[C@@H](Cc1c[nH]c2ccccc12)C(=O)N[C@@H](CC(C)C)C(=O)N[C@@H](CCSC)C(=O)N[C@@H](CC(N)=O)C(=O)N[C@H](C(=O)N[C@@H](CCCCN)C(=O)N[C@@H](CCC(=O)O)C(=O)N[C@@H](Cc1ccc(O)cc1)C(=O)N[C@@H](CCC(=O)O)C(=O)N[C@@H](CCCCNC(=O)CCCCCCCCCCCCCCC(=O)O)C(=O)N[C@@H](CCC(=O)O)C(=O)N[C@@H](Cc1ccc(O)cc1)C(=O)N[C@@H](CCC(=O)O)C(=O)O)[C@@H](C)O)C(C)C)C(=O)O` [Compound 2], the half-life in the data set “in vivo [1]” (Mouse PK (S.C. half-life)) is over 6 h; in the data set “in vivo [1]” (half-life in mice) it was over 6 h; in “in vivo [2]” (Monkey PK (S.C. half-life)), 12 to 18 h; in the data set “in vivo [2]” (monkey PK half-life), over 12 h. The results for the Emax at glucagon receptor and at GLP-1 receptor were 100% and 104%, respectively. Moreover, the pEC50 at glucagon receptor and at GLP-1 receptor was 9.00 to 10.00 throughout.

On to `CCCCCCCCCCCCCCCCCC(=O)N[C@@H](CCC(=O)NCCOCCOCC(=O)NCCOCCOCC(=O)NCCCC[C@H](NC(=O)[C@H](CC(=O)O)NC(=O)[C@H](CO)NC(=O)[C@@H](NC(=O)[C@H](Cc1ccccc1)NC(=O)[C@@H](NC(=O)CNC(=O)[C@H](CCC(N)=O)NC(=O)C(C)(C)NC(=O)[C@@H](N)Cc1c[nH]cn1)[C@@H](C)O)[C@@H](C)O)C(=O)N[C@@H](CO)C(=O)N[C@@H](CCCCN)C(=O)N[C@@H](Cc1ccc(O)cc1)C(=O)N[C@@H](CC(C)C)C(=O)N[C@@H](CC(=O)O)C(=O)NC(C)(C)C(=O)N[C@@H](CCCNC(=N)N)C(=O)N[C@@H](CCCNC(=N)N)C(=O)N[C@@H](C)C(=O)N[C@@H](CCC(N)=O)C(=O)N[C@@H](CC(=O)O)C(=O)N[C@@H](Cc1ccccc1)C(=O)N[C@H](C(=O)N[C@@H](CCC(N)=O)C(=O)N[C@@H](Cc1c[nH]c2ccccc12)C(=O)N[C@@H](CC(C)C)C(=O)N[C@@H](CCSC)C(=O)N[C@@H](CC(N)=O)C(=O)N[C@H](C(=O)N[C@@H](CCCCN)C(=O)N[C@@H](CCC(=O)O)C(=O)N[C@@H](Cc1ccc(O)cc1)C(=O)N[C@@H](CCC(=O)O)C(=O)N[C@@H](CCCCNC(=O)CCCCCCCCCCCCC(=O)O)C(=O)N[C@@H](CCC(=O)O)C(=O)N[C@@H](Cc1ccc(O)cc1)C(=O)N[C@@H](CCC(=O)O)C(=O)O)[C@@H](C)O)C(C)C)C(=O)O` [Compound 1], for which the half-life was over 6 h in the data set “in vivo [1]” (Mouse PK (S.C. half-life)), over 6 h in the data set “in vivo [1]” (half-life in mice), 12 to 18 h in the data set “in vivo [2]” (Monkey PK (S.C. half-life)) and over 12 h in the data set “in vivo [2]” (monkey PK half-life). The results for the Emax on glucagon receptor and on GLP-1 receptor were 107% and 102%, respectively. For the same compound, the pEC50 at glucagon receptor and at GLP-1 receptor was over 10.00 in each case.
